≈ marks a conversion by molar mass, not a printed value.
What was measured:
Assay type in all cases: functional
Escherichia coli = experiment: Antibacterial activity against Escherichia coli MTCC 443 after 24 to 48 hr by broth microdilution method
Vibrio cholerae = experiment: Antibacterial activity against Vibrio cholerae MTCC 3906 after 24 to 48 hr by broth microdilution method
Salmonella typhi = experiment: Antibacterial activity against Salmonella enterica subsp. enterica serovar Typhi MTCC 98 after 24 to 48 hr by broth microdilution method
Bacillus subtilis = experiment: Antibacterial activity against Bacillus subtilis MTCC 441 after 24 to 48 hr by broth microdilution method
Clostridium tetani = experiment: Antibacterial activity against Clostridium tetani MTCC 449 after 24 to 48 hr by broth microdilution method
Streptococcus pneumoniae = experiment: Antibacterial activity against Streptococcus pneumoniae MTCC 1936 after 24 to 48 hr by broth microdilution method
Candida albicans = experiment: Antifungal activity against Candida albicans MTCC 227 after 24 to 48 hr by broth microdilution method
Aspergillus fumigatus = experiment: Antifungal activity against Aspergillus fumigatus MTCC 3008 after 24 to 48 hr by broth microdilution method

Molecule	MIC (Escherichia coli)	MIC (Vibrio cholerae)	MIC (Salmonella typhi)	MIC (Bacillus subtilis)	MIC (Clostridium tetani)	MIC (Streptococcus pneumoniae)	MIC (Candida albicans)	MIC (Aspergillus fumigatus)
CCn1cc(C(=O)O)c(=O)c2cc(F)c(N3CCNCC3)cc21 [NORFLOXACIN]	10 µg/mL (≈ 31.3 µM)	10 µg/mL (≈ 31.3 µM)	10 µg/mL (≈ 31.3 µM)	100 µg/mL (≈ 313 µM)	50 µg/mL (≈ 157 µM)	10 µg/mL (≈ 31.3 µM)	–	–
CC1(C)CC(=O)C2=C(C1)OC(N)=C(C#N)C2c1c(-c2ccccc2)[nH]c2ccccc12 (stereo not drawn)	500 µg/mL (≈ 1220 µM)	200 µg/mL (≈ 488 µM)	500 µg/mL (≈ 1220 µM)	200 µg/mL (≈ 488 µM)	200 µg/mL (≈ 488 µM)	200 µg/mL (≈ 488 µM)	1000 µg/mL (≈ 2440 µM)	500 µg/mL (≈ 1220 µM)
O=C(O)c1cn(C2CC2)c2cc(N3CCNCC3)c(F)cc2c1=O [CIPROFLOXACIN]	25 µg/mL (≈ 75.4 µM)	25 µg/mL (≈ 75.4 µM)	25 µg/mL (≈ 75.4 µM)	–	–	50 µg/mL (≈ 151 µM)	–	–
N#CC1=C(N)OC2=C(C(=O)CCC2)C1c1c(-c2ccc([N+](=O)[O-])cc2)[nH]c2ccccc12 (stereo not drawn)	500 µg/mL (≈ 1170 µM)	500 µg/mL (≈ 1170 µM)	500 µg/mL (≈ 1170 µM)	250 µg/mL (≈ 586 µM)	250 µg/mL (≈ 586 µM)	250 µg/mL (≈ 586 µM)	200 µg/mL (≈ 469 µM)	500 µg/mL (≈ 1170 µM)
N#CC1=C(N)OC2=C(C(=O)CCC2)C1c1c(-c2ccc(F)cc2)[nH]c2ccccc12 (stereo not drawn)	500 µg/mL (≈ 1250 µM)	250 µg/mL (≈ 626 µM)	500 µg/mL (≈ 1250 µM)	200 µg/mL (≈ 501 µM)	500 µg/mL (≈ 1250 µM)	200 µg/mL (≈ 501 µM)	500 µg/mL (≈ 1250 µM)	1000 µg/mL (≈ 2500 µM)
Cc1ccc(-c2[nH]c3ccccc3c2C2C(C#N)=C(N)OC3=C2C(=O)CCC3)cc1 (stereo not drawn)	200 µg/mL (≈ 506 µM)	250 µg/mL (≈ 632 µM)	250 µg/mL (≈ 632 µM)	500 µg/mL (≈ 1260 µM)	500 µg/mL (≈ 1260 µM)	500 µg/mL (≈ 1260 µM)	1000 µg/mL (≈ 2530 µM)	1000 µg/mL (≈ 2530 µM)
CC1(C)S[C@@H]2[C@H](NC(=O)[C@H](N)c3ccccc3)C(=O)N2[C@H]1C(=O)O [AMPICILLIN]	100 µg/mL (≈ 286 µM)	100 µg/mL (≈ 286 µM)	100 µg/mL (≈ 286 µM)	250 µg/mL (≈ 715 µM)	250 µg/mL (≈ 715 µM)	100 µg/mL (≈ 286 µM)	–	–
N#CC1=C(N)OC2=C(C(=O)CCC2)C1c1c(-c2ccc(Br)cc2)[nH]c2ccccc12 (stereo not drawn)	125 µg/mL (≈ 272 µM)	200 µg/mL (≈ 434 µM)	200 µg/mL (≈ 434 µM)	200 µg/mL (≈ 434 µM)	200 µg/mL (≈ 434 µM)	100 µg/mL (≈ 217 µM)	500 µg/mL (≈ 1090 µM)	500 µg/mL (≈ 1090 µM)
CC1(C)CC(=O)C2=C(C1)OC(N)=C(C#N)C2c1c(-c2ccc([N+](=O)[O-])cc2)[nH]c2ccccc12 (stereo not drawn)	250 µg/mL (≈ 550 µM)	250 µg/mL (≈ 550 µM)	500 µg/mL (≈ 1100 µM)	500 µg/mL (≈ 1100 µM)	200 µg/mL (≈ 440 µM)	250 µg/mL (≈ 550 µM)	200 µg/mL (≈ 440 µM)	250 µg/mL (≈ 550 µM)
CC1(C)CC(=O)C2=C(C1)OC(N)=C(C#N)C2c1c(-c2ccc(S(C)(=O)=O)cc2)[nH]c2ccccc12 (stereo not drawn)	100 µg/mL (≈ 205 µM)	500 µg/mL (≈ 1030 µM)	200 µg/mL (≈ 410 µM)	250 µg/mL (≈ 513 µM)	125 µg/mL (≈ 256 µM)	500 µg/mL (≈ 1030 µM)	250 µg/mL (≈ 513 µM)	500 µg/mL (≈ 1030 µM)
N#CC1=C(N)OC2=C(C(=O)CCC2)C1c1c(-c2ccccc2)[nH]c2ccccc12 (stereo not drawn)	500 µg/mL (≈ 1310 µM)	250 µg/mL (≈ 655 µM)	500 µg/mL (≈ 1310 µM)	500 µg/mL (≈ 1310 µM)	500 µg/mL (≈ 1310 µM)	500 µg/mL (≈ 1310 µM)	1000 µg/mL (≈ 2620 µM)	500 µg/mL (≈ 1310 µM)
CC1(C)CC(=O)C2=C(C1)OC(N)=C(C#N)C2c1c(-c2ccc(F)cc2)[nH]c2ccccc12 (stereo not drawn)	200 µg/mL (≈ 468 µM)	500 µg/mL (≈ 1170 µM)	250 µg/mL (≈ 585 µM)	100 µg/mL (≈ 234 µM)	200 µg/mL (≈ 468 µM)	200 µg/mL (≈ 468 µM)	1000 µg/mL (≈ 2340 µM)	250 µg/mL (≈ 585 µM)
N#CC1=C(N)OC2=C(C(=O)CCC2)C1c1c(-c2ccc(Cl)cc2)[nH]c2ccccc12 (stereo not drawn)	100 µg/mL (≈ 240 µM)	100 µg/mL (≈ 240 µM)	125 µg/mL (≈ 301 µM)	200 µg/mL (≈ 481 µM)	500 µg/mL (≈ 1200 µM)	200 µg/mL (≈ 481 µM)	> 1000 µg/mL	1000 µg/mL (≈ 2400 µM)
CS(=O)(=O)c1ccc(-c2[nH]c3ccccc3c2C2C(C#N)=C(N)OC3=C2C(=O)CCC3)cc1 (stereo not drawn)	100 µg/mL (≈ 218 µM)	500 µg/mL (≈ 1090 µM)	100 µg/mL (≈ 218 µM)	500 µg/mL (≈ 1090 µM)	100 µg/mL (≈ 218 µM)	500 µg/mL (≈ 1090 µM)	1000 µg/mL (≈ 2180 µM)	1000 µg/mL (≈ 2180 µM)
NYSTATIN	–	–	–	–	–	–	100 µg/mL	100 µg/mL
COc1ccc(-c2[nH]c3ccccc3c2C2C(C#N)=C(N)OC3=C2C(=O)CCC3)cc1 (stereo not drawn)	100 µg/mL (≈ 243 µM)	200 µg/mL (≈ 486 µM)	200 µg/mL (≈ 486 µM)	250 µg/mL (≈ 608 µM)	100 µg/mL (≈ 243 µM)	200 µg/mL (≈ 486 µM)	500 µg/mL (≈ 1220 µM)	1000 µg/mL (≈ 2430 µM)
CC1(C)CC(=O)C2=C(C1)OC(N)=C(C#N)C2c1c(-c2ccc(Cl)cc2)[nH]c2ccccc12 (stereo not drawn)	62.5 µg/mL (≈ 141 µM)	100 µg/mL (≈ 225 µM)	200 µg/mL (≈ 451 µM)	250 µg/mL (≈ 563 µM)	250 µg/mL (≈ 563 µM)	250 µg/mL (≈ 563 µM)	> 1000 µg/mL	> 1000 µg/mL
COc1ccc(-c2[nH]c3ccccc3c2C2C(C#N)=C(N)OC3=C2C(=O)CC(C)(C)C3)cc1 (stereo not drawn)	500 µg/mL (≈ 1140 µM)	500 µg/mL (≈ 1140 µM)	500 µg/mL (≈ 1140 µM)	500 µg/mL (≈ 1140 µM)	500 µg/mL (≈ 1140 µM)	500 µg/mL (≈ 1140 µM)	500 µg/mL (≈ 1140 µM)	> 1000 µg/mL
COC1=CC(=O)C[C@@H](C)[C@]12Oc1c(Cl)c(OC)cc(OC)c1C2=O [GRISEOFULVIN]	–	–	–	–	–	–	500 µg/mL (≈ 1420 µM)	100 µg/mL (≈ 283 µM)
CC1(C)CC(=O)C2=C(C1)OC(N)=C(C#N)C2c1c(-c2ccc(Br)cc2)[nH]c2ccccc12 (stereo not drawn)	200 µg/mL (≈ 410 µM)	500 µg/mL (≈ 1020 µM)	250 µg/mL (≈ 512 µM)	200 µg/mL (≈ 410 µM)	500 µg/mL (≈ 1020 µM)	125 µg/mL (≈ 256 µM)	1000 µg/mL (≈ 2050 µM)	200 µg/mL (≈ 410 µM)
Cc1ccc(-c2[nH]c3ccccc3c2C2C(C#N)=C(N)OC3=C2C(=O)CC(C)(C)C3)cc1 (stereo not drawn)	500 µg/mL (≈ 1180 µM)	500 µg/mL (≈ 1180 µM)	250 µg/mL (≈ 590 µM)	250 µg/mL (≈ 590 µM)	250 µg/mL (≈ 590 µM)	200 µg/mL (≈ 472 µM)	500 µg/mL (≈ 1180 µM)	1000 µg/mL (≈ 2360 µM)
